This note sets out measurements from EP4810483A1, “6- AND 5-HETEROARYL DERIVATIVES AND USE THEREOF” (CMS Research & Development Pte. Ltd., priority 2023, dated 2025).

As usually defined, the IC50 is the midpoint of a concentration-inhibition curve. The low end stands for inhibition by little substance, the high end for a need for much substance. What is called EC50 is the concentration that produces a half-maximal response.

Sequence of CYP2D6 (P10635 whole entry): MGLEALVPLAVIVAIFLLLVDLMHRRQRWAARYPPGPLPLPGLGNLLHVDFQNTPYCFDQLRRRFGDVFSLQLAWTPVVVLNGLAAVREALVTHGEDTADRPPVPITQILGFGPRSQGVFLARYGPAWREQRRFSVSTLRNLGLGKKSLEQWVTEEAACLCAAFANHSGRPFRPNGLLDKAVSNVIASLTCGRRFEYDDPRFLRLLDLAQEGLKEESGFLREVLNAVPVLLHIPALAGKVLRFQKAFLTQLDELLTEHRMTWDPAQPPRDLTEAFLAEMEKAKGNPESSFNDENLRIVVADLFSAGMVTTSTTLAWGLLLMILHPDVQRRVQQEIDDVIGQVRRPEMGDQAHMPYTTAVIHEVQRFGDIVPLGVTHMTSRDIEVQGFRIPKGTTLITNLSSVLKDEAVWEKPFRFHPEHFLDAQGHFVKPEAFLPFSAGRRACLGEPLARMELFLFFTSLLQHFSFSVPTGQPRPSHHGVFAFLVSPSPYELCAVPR

The target in one data set is CYP2C9 (Homo sapiens, UniProt P11712). In words: Drug-drug interaction evaluation: CYP inhibition in human liver microsomes (cocktail method).
Sequence of CYP2C9 (P11712 whole entry): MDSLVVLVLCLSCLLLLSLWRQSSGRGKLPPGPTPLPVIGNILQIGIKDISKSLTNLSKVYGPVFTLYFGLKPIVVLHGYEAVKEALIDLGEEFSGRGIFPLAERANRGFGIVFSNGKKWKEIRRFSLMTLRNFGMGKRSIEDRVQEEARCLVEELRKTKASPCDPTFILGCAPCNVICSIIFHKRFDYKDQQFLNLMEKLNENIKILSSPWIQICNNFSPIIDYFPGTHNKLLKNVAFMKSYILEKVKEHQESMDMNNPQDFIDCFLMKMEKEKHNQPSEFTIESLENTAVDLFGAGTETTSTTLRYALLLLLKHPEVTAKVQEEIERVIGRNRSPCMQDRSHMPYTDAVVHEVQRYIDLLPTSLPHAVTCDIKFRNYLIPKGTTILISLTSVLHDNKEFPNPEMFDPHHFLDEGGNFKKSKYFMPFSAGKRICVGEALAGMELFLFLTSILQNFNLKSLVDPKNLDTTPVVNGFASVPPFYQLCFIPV
Details: not given
The protocol: (§1) The cocktail method using specific probe substrates for CYP1A2, CYP2C9, CYP2C19, CYP2D6 and CYP3A was used to evaluate the inhibitory effect of the compounds on the activity of human liver microsomal cytochrome P450 isoenzymes (CYP1A2, CYP2C9, CYP2C19, CYP2D6 and CYP3A).
(§2) Human liver microsomes, probe substrates, positive control inhibitors, and reduced nicotinamide adenine dinucleotide phosphate (NADPH).
(§3) To the corresponding wells of a reaction plate, 20 µL of substrate solution was added; to blank wells, 20 µL of potassium phosphate buffer was added.
(§4) To the corresponding wells, 2 µL of test compound and positive control working solution were added; to inhibitor-free and blank wells, 2 µL of solvent was added.
(§5) Human liver microsome working solution was prepared, and 158 µL of human liver microsome working solution was added to each well of the reaction plate.
(§6) The plate was pre-incubated at 37.0°C for 10 minutes.
(§7) To start the reaction, 20 µL of NADPH cofactor working solution was added to the reaction plate.
(§8) After incubation in a 37.0°C water bath with mixing for 10 minutes, 400 µL of stop solution was added to terminate the reaction.
(§9) The sample plate was centrifuged at 4000 rpm for 20 minutes.
(§10) 200 µL of supernatant was taken and mixed with 100 µL of pure water as diluent, and the plate was shaken to mix well.
(§11) Analysis was performed by liquid chromatography-tandem mass spectrometry (LC-MS/MS).
(§12) Using the percentage of remaining activity as the ordinate and the test compound concentration as the abscissa, a non-linear regression analysis was performed with a three-parameter or four-parameter model using XL fit software to calculate the IC50 value.
(§13) y = (max)/(1 + (((x)/(IC50)))^−hillslope) [formula]
(§14) y = min + (max−min)/(1 + (((x)/(IC50)))^−hillslope) [formula]
(§15) max = maximum enzyme activity; min = minimum enzyme activity; x = concentration of test compound or positive control inhibitor; y = enzyme activity at the corresponding concentration; hillslope = slope; IC50 = half-maximal inhibitory concentration. The four-parameter equation was used when the minimum enzyme activity was within ±10%; otherwise the three-parameter equation was used.
On the technique in general: Liver microsomes are a subcellular fraction often used to study metabolism.
On to `Cc1c(NC(=O)CC(C)(C)C)n(C)c2cc(Nc3ncc(F)cc3F)ccc12` [Compound 26], for which the 50% inhibitory concentration (IC50) is more than 50 µM.

Regarding `Cc1cc(F)cnc1Nc1ccc2c(C)c(NC(=O)CC(C)(C)C)n(C)c2c1` [Compound 31], the IC50 was more than 50 µM.

Consider `Cc1c(NC(=O)CC2(C)CC2)n(C)c2cc(Nc3ccc(F)cc3)ccc12` [Compound 12], for which the midpoint of inhibition, the IC50, lay at 11 µM.

`Cc1c(NC(=O)CC2(C)CC2)n(C)c2cc(Nc3ncc(F)cc3F)ccc12` [Compound 35]: the IC50 is more than 50 µM.

A further data set has as its target CYP2D6 (Homo sapiens, UniProt P10635). Described as above.
Details: not given
The protocol: as §1, §2, §3, §4, §5, §6, §7, §8, §9, §10, §11, §12, §13, §14, §15
As to `Cc1c(NC(=O)CC(C)(C)C)n(C)c2cc(Nc3ncc(F)cc3F)ccc12` [Compound 26], the IC50 is more than 50 µM.

For the molecule `Cc1cc(F)cnc1Nc1ccc2c(C)c(NC(=O)CC(C)(C)C)n(C)c2c1` [Compound 31], the concentration for half-maximal inhibition (IC50) was more than 50 µM.

On to `Cc1c(NC(=O)CC2(C)CC2)n(C)c2cc(Nc3ccc(F)cc3)ccc12` [Compound 12], for which the IC50 came out at 15 µM. In other words, the double-digit micromolar range.

For the molecule `Cc1c(NC(=O)CC2(C)CC2)n(C)c2cc(Nc3ncc(F)cc3F)ccc12` [Compound 35], the IC50 was more than 50 µM.

For another data set, the target named is CYP3A4 (Homo sapiens, UniProt P08684). The data set is described as above.
Sequence of CYP3A4 (P08684 2-503): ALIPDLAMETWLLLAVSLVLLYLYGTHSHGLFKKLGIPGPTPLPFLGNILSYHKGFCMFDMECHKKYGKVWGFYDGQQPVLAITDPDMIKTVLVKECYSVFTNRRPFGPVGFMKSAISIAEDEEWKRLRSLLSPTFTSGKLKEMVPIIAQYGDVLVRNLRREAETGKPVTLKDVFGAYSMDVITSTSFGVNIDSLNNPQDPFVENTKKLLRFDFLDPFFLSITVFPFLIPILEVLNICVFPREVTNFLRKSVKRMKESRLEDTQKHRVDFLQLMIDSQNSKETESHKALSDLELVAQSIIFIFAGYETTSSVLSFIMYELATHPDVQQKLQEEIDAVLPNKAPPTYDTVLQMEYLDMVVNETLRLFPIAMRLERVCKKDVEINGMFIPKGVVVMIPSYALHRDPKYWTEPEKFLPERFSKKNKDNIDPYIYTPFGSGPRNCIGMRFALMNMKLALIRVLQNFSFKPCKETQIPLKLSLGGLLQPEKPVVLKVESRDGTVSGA
Details: not given
The protocol:
as §1, §2, §3, §4, §5, §6, §7, §8, §9, §10, §11, §12, §13, §14, §15
Turning to `Cc1c(NC(=O)CC(C)(C)C)n(C)c2cc(Nc3ncc(F)cc3F)ccc12` [Compound 26], the IC50 is more than 50 µM.

Turning to `Cc1cc(F)cnc1Nc1ccc2c(C)c(NC(=O)CC(C)(C)C)n(C)c2c1` [Compound 31], the IC50 is more than 50 µM.

As to `Cc1c(NC(=O)CC2(C)CC2)n(C)c2cc(Nc3ccc(F)cc3)ccc12` [Compound 12], the IC50 worked out at 37 µM.

On to `Cc1c(NC(=O)CC2(C)CC2)n(C)c2cc(Nc3ncc(F)cc3F)ccc12` [Compound 35], for which the IC50 is more than 50 µM.

In the next data set the target is CYP2C19 (Homo sapiens, UniProt P33261). The description is as above.
Sequence of CYP2C19 (P33261 whole entry): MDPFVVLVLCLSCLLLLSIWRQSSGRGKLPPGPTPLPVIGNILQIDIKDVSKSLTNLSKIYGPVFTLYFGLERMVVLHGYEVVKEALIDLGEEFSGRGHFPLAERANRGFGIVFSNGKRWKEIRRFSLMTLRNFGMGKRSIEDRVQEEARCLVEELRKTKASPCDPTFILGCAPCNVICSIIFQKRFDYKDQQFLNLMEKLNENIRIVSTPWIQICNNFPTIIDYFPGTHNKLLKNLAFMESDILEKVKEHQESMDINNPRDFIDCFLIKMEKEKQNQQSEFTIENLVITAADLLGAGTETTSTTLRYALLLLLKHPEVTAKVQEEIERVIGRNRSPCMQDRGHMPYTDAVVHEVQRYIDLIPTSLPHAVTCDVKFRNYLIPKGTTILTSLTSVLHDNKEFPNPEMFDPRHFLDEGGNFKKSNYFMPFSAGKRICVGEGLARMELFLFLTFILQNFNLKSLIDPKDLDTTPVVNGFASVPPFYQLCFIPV
Details: not given
The protocol:
as §1, §2, §3, §4, §5, §6, §7, §8, §9, §10, §11, §12, §13, §14, §15
For the molecule `Cc1c(NC(=O)CC(C)(C)C)n(C)c2cc(Nc3ncc(F)cc3F)ccc12` [Compound 26], the IC50 is 44 µM.

`Cc1cc(F)cnc1Nc1ccc2c(C)c(NC(=O)CC(C)(C)C)n(C)c2c1` [Compound 31] displayed an IC50 of more than 50 µM.

Take `Cc1c(NC(=O)CC2(C)CC2)n(C)c2cc(Nc3ccc(F)cc3)ccc12` [Compound 12]: the IC50 came out at 13 µM.

The molecule `Cc1c(NC(=O)CC2(C)CC2)n(C)c2cc(Nc3ncc(F)cc3F)ccc12` [Compound 35] came in with an IC50 of more than 50 µM.

The target in the next data set is T1, CYP1A2 (Homo sapiens, UniProt P05177).
T1 sequence (P05177 1-516): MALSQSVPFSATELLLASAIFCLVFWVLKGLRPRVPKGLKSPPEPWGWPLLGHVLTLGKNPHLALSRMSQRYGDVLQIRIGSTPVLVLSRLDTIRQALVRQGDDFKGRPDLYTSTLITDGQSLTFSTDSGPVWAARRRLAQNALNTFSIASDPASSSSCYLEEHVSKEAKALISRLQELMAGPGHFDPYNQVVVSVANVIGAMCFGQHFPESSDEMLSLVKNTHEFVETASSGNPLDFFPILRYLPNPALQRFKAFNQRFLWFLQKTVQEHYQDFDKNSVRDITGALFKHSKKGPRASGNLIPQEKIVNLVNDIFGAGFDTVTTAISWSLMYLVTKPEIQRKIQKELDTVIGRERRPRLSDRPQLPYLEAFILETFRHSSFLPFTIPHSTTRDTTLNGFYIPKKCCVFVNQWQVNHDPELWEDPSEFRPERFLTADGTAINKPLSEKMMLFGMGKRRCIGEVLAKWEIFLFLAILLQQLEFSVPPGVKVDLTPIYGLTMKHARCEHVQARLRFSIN
The description is as above.
Details: not given
The protocol:
as §1, §2, §3, §4, §5, §6, §7, §8, §9, §10, §11, §12, §13, §14, §15
`Cc1c(NC(=O)CC(C)(C)C)n(C)c2cc(Nc3ncc(F)cc3F)ccc12` [Compound 26] came in with a 50% inhibitory concentration (IC50) of 19 µM.

Take `Cc1cc(F)cnc1Nc1ccc2c(C)c(NC(=O)CC(C)(C)C)n(C)c2c1` [Compound 31]: the IC50 was more than 50 µM.

Molecule `Cc1c(NC(=O)CC2(C)CC2)n(C)c2cc(Nc3ccc(F)cc3)ccc12` [Compound 12] gave an IC50 of 20 µM.

`Cc1c(NC(=O)CC2(C)CC2)n(C)c2cc(Nc3ncc(F)cc3F)ccc12` [Compound 35] displayed an IC50 of more than 50 µM.

The target of another data set is T2, hKCNQ2/3 (Homo sapiens, UniProt O43525+O43526).
T2 construct: expressed in transfected cells; host or cells: CHO
T2 sequence (O43526 whole entry): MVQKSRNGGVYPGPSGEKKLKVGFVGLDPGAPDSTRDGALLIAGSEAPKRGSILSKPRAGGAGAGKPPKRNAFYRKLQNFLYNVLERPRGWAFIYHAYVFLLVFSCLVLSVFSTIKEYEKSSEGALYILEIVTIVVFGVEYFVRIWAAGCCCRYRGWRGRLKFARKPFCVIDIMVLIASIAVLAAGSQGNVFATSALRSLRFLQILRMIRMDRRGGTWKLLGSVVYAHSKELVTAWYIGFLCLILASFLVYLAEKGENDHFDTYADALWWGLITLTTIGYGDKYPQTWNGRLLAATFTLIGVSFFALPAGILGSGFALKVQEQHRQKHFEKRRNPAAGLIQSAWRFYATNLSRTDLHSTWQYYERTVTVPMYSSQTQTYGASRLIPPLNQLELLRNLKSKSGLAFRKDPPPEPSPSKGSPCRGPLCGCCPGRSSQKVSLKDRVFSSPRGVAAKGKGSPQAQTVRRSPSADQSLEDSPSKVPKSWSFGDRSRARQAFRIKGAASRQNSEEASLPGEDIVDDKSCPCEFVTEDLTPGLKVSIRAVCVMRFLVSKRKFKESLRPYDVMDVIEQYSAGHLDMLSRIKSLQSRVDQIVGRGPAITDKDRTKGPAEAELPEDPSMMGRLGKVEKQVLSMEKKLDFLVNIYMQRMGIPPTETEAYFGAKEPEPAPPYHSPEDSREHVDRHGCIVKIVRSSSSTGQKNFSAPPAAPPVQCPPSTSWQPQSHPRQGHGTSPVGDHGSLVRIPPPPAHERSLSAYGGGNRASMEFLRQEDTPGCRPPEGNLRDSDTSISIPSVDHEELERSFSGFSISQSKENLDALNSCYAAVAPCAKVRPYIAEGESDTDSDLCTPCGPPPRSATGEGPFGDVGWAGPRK
T2 sequence (O43525 whole entry): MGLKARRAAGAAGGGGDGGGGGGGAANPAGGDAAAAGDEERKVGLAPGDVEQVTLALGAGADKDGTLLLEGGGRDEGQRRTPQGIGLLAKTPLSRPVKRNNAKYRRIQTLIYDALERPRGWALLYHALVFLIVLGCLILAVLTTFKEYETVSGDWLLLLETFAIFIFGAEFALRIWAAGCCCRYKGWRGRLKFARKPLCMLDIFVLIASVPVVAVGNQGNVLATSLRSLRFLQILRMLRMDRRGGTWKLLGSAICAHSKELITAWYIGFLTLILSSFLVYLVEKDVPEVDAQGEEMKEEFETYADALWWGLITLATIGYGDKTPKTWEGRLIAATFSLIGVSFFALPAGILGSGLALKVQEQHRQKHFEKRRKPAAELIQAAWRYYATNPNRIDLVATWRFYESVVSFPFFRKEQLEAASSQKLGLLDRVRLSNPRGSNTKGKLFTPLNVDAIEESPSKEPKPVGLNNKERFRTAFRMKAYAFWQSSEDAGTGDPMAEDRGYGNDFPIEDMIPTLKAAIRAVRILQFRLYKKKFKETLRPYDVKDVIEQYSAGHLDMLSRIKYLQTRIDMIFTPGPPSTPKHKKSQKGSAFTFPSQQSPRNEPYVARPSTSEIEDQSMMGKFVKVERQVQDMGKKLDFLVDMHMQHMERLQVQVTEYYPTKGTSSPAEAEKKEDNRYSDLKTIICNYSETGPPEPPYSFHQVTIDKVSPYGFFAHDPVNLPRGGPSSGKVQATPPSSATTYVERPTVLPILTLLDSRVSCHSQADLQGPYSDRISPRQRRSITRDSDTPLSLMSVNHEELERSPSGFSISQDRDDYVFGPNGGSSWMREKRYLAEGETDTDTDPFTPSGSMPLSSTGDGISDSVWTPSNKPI
In words: cell-based.
Details: not given
From the text: Test Method 1: hKCNQ2/3 Thallium Flux Assay
Test Objective: To test the in vitro concentration-response relationship of compounds using FLIPR thallium flux assay in CHO cell lines stably expressing hKCNQ2/3.
According to the split ratio, the cells were transferred to another T-75 flask containing complete cell growth medium. Note: To maintain logarithmic growth, the cells should be kept in a subconfluent monolayer state. Based on the cell doubling time, the cells were passaged every 2-3 days.
• (1) Day 1 - Cell preparation: Cells were digested as described above, and cell density and viability were determined using a Cell Countess. The volume of the single-cell suspension was adjusted with complete cell growth medium. Then, hKCNQ2/3_CHO cells were seeded onto PDL-precoated 384-well plates at a density of approximately 20,000 cells/well (30 µL/well). The plates were then incubated overnight in a 37°C, 5% CO2 humidified air incubator. • (2) Day 2 - Compound preparation: Test compounds were diluted with dimethyl sulfoxide (DMSO) to stock concentrations and stored in a -20°C freezer. A compound addition program was set up on the ECHO liquid handler, and compounds were added to the plates using the ECHO liquid handler. Retigabine (RTG) was used as a positive control at a highest concentration of 100 µM with 3-fold serial dilutions for a total of 9 doses. Buffer containing 5 mM K^+ and 1 mM Tl^+ was added to the plates. Notes: 1) K2SO4 and Tl2SO4 were prepared in 1× chloride-free buffer. Depending on the voltage-gated potassium channel involved, the concentrations of Tl^+ and K^+ should be adjusted. Tl^+ concentration is approximately 0.5-5 mM, and K^+ concentration is approximately 5-30 mM. 2) Each 1 mM solution of K2SO4 and Tl2SO4 contains 2 mM K^+ and Tl^+; the final concentration should be calculated based on the ion concentration. 3) TlCl readily precipitates and a chloride-free buffer is required. • (3) Day 2 -Assay testing: Once the cells reached the desired confluence, the cell assay plates were removed from the incubator. Assay buffer and diluted Tl^+ dye (Molecular Devices # R8222) were prepared. The medium was discarded using a Bravo liquid handler, and 25 µL of Tl^+ dye was added to each well. After 1 hour of incubation, the cell assay plates, composite plates and FLIPR tips were placed in the FLIPR^TETRA (Molecular Devices, USA) for FLIPR detection. After setting up the tips, baseline readings were taken for 60 seconds, then 12.5 µL was added from the composite plate (3×) to the cell assay plate, and data were recorded for at least 5 minutes. • (4) Data processing: Maximum signals were generated by the FLIPR software. […] Data quality control: S/B > 2.00, Z factor > 0.50.
• (1) Day 1 - Cell preparation: Cells were digested as described above, and cell density and viability were determined using a Cell Countess. The volume of the single-cell suspension was adjusted with complete cell growth medium. Then, hKCNQ2/3_CHO cells were seeded onto PDL-precoated 384-well plates at a density of approximately 20,000 cells/well (30 µL/well). The plates were then incubated overnight in a 37°C, 5% CO2 humidified air incubator. • (2) Day 2 - Compound preparation: Test compounds were diluted with dimethyl sulfoxide (DMSO) to stock concentrations and stored in a -20°C freezer. A compound addition program was set up on the ECHO liquid handler, and compounds were added to the plates using the ECHO liquid handler. Retigabine (RTG) was used as a positive control at a highest concentration of 100 µM with 3-fold serial dilutions for a total of 9 doses. Buffer containing 5 mM K^+ and 1 mM Tl^+ was added to the plates. Notes: 1) K2SO4 and Tl2SO4 were prepared in 1× chloride-free buffer. Depending on the voltage-gated potassium channel involved, the concentrations of Tl^+ and K^+ should be adjusted. Tl^+ concentration is approximately 0.5 mM -5 mM, and K^+ concentration is approximately 5 mM -30 mM.
Turning to `Cc1c(NC(=O)CC(C)(C)C)n(C)c2cc(Nc3ncc(F)cc3F)ccc12` [Compound 26], the concentration giving a half-maximal response (EC50) was found to be 0.4 µM.

In the case of `Cc1c(NC(=O)CC2(C)CC2)n(C)c2cc(Nc3ccc(F)cc3)ccc12` [Compound 12], the EC50 turned out to be 0.8 µM.

Molecule `Cc1c(NC(=O)CC2(C)CC2)n(C)c2cc(Nc3ncc(F)cc3F)ccc12` [Compound 35] yielded an EC50 of 0.49 µM. Against the preceding molecule, the EC50 is about 1.6-fold lower.

The subject of a further data set is maximal electroshock-induced epilepsy model. Nature of the data set: Maximal electroshock-induced epilepsy model, behavioral pharmacodynamics. The format is in vivo. To be noted: dose 5 mg/kg, oral, one hour before electrical stimulation; male CD-1 mice. From the text:
Assay Example 2: Evaluation of the behavioral pharmacodynamics of the test compounds in a maximal electroshock-induced epilepsy model
This study used behavioral tests in male CD-1 mice to investigate the effects of test compounds on acute epileptic seizures behavior induced by maximal electroshock.
Male CD-1 mice (25 to 35g) were used as the experimental animals and fed with standard feed (Beijing Vital River Laboratory Animal Technology Co., Ltd.).
After arriving at the animal facility, the experimental animals needed to acclimatize for at least one week. The mice were observed daily for vital signs, and randomly divided into groups according to their body weights one day before the drug administration. One hour before the electrical stimulation, different dosages of the test compound were orally administered to each group. On the day of the assay, the male CD-1 mice in each group were anesthetized locally at the cornea with 2% lidocaine. Then, silver bipolar electrodes were used to electrically stimulate the cornea of the mice with 18 mA, 60 Hz, a pulse width of 0.6 ms, and a stimulation time of 1 s to induce seizures. Subsequently, the latency of seizures and the duration of limb rigidity in mice after the electrical stimulation were observed, and the protection rate from seizures for each group was statistically analyzed.
`Cc1cc(F)cnc1Nc1ccc2c(C)c(NC(=O)CC(C)(C)C)n(C)c2c1` [Compound 31]: the “Seizure incidence (%)” value came out at 16.7%.
